Values joined by “and” are separate entries in the source; they are usually repeats but may differ in a detail not shown here. Equal entries are not always repeated. Where two headings read alike, the source gives them in different places.
What was measured:
human KOR [1] = target: human KOR (Homo sapiens, UniProt P41145); experiment: cell-based; parameters: expressed in transfected cells; host or cells: HEK 293T (ATCC, CRL-3216); conditions: HTLA
KOR K227A = KOR K227A (Homo sapiens, UniProt P41145, K227A); type: cell-based; parameters: expressed in transfected cells; host or cells: HEK 293T (ATCC, CRL-3216); conditions: Log [Drug]
human KOR [2] = target: T1, human KOR (Homo sapiens, UniProt P41145, Q115N); experiment: cell-based; conditions: HTLA
T1 construct: expressed in transfected cells; host or cells: HEK 293T (ATCC, CRL-3216)

human KOR [3] = target: T2, human KOR (Homo sapiens, UniProt P41145, G319L); experiment: cell-based; conditions: HTLA
T2 construct: expressed in transfected cells; host or cells: HEK 293T (ATCC, CRL-3216)

human KOR [4] = target: T3, human KOR (Homo sapiens, UniProt P41145, V134A); experiment: cell-based; conditions: HTLA
T3 construct: expressed in transfected cells; host or cells: HEK 293T (ATCC, CRL-3216)

human KOR [5] = target: T4, human KOR (Homo sapiens, UniProt P41145, Y320L); experiment: cell-based; conditions: HTLA
T4 construct: expressed in transfected cells; host or cells: HEK 293T (ATCC, CRL-3216)

human KOR [6] = target: T5, human KOR (Homo sapiens, UniProt P41145, W124L); experiment: cell-based; conditions: HTLA
T5 construct: expressed in transfected cells; host or cells: HEK 293T (ATCC, CRL-3216)

human KOR [7] = target: T6, human KOR (Homo sapiens, UniProt P41145, F114L); experiment: cell-based; conditions: HTLA
T6 construct: expressed in transfected cells; host or cells: HEK 293T (ATCC, CRL-3216)

human KOR [8] = target: T7, human KOR (Homo sapiens, UniProt P41145, W287A); experiment: cell-based; conditions: HTLA
T7 construct: expressed in transfected cells; host or cells: HEK 293T (ATCC, CRL-3216)

human KOR [9] = target: T8, human KOR (Homo sapiens, UniProt P41145, K227A); experiment: cell-based; conditions: HTLA
T8 construct: expressed in transfected cells; host or cells: HEK 293T (ATCC, CRL-3216)

DOR = DOR (Homo sapiens, UniProt P41143); experiment: Radioligand competition binding (3H-Diprenorphine)
human KOR (Gi2) = target: T9, human KOR (Gi2) (Homo sapiens, UniProt P41145, N322A); experiment: cell-based
T9 construct: expressed in transfected cells; host or cells: HEK293T

MOR = target: T10, MOR (Homo sapiens, UniProt P35372); experiment: BRET-Gi1 protein activation; type: cell-based
T10 construct: expressed in transfected cells; host or cells: HEK293

human KOR (Gz) [10] = target: T11, human KOR (Gz) (Homo sapiens, UniProt P41145, R271A); experiment: cell-based
T11 construct: expressed in transfected cells; host or cells: HEK293T

human KOR (Gz) [11] = target: T12, human KOR (Gz) (Homo sapiens, UniProt P41145, N141A); experiment: cell-based
T12 construct: expressed in transfected cells; host or cells: HEK293T

human KOR (Gz) [12] = target: T13, human KOR (Gz) (Homo sapiens, UniProt P41145, N322A); experiment: cell-based
T13 construct: expressed in transfected cells; host or cells: HEK293T

human KOR (Gz) [13] = target: T14, human KOR (Gz) (Homo sapiens, UniProt P41145, K227A); experiment: cell-based
T14 construct: expressed in transfected cells; host or cells: HEK293T

human KOR (Gz) [14] = target: T15, human KOR (Gz) (Homo sapiens, UniProt P41145, K200A); experiment: cell-based
T15 construct: expressed in transfected cells; host or cells: HEK293T

human KOR (Gz) [15] = target: T16, human KOR (Gz) (Homo sapiens, UniProt P41145, E297A); experiment: cell-based
T16 construct: expressed in transfected cells; host or cells: HEK293T

human KOR (Gz) [16] = target: T17, human KOR (Gz) (Homo sapiens, UniProt P41145, R170A); experiment: cell-based
T17 construct: expressed in transfected cells; host or cells: HEK293T

human KOR (Gz) [17] = target: T18, human KOR (Gz) (Homo sapiens, UniProt P41145, R274A); experiment: cell-based
T18 construct: expressed in transfected cells; host or cells: HEK293T

human KOR (Gz) [18] = target: T19, human KOR (Gz) (Homo sapiens, UniProt P41145, F114L); experiment: cell-based
T19 construct: expressed in transfected cells; host or cells: HEK293T

human KOR (Gz) [19] = target: T20, human KOR (Gz) (Homo sapiens, UniProt P41145, T94V); experiment: cell-based
T20 construct: expressed in transfected cells; host or cells: HEK293T

human KOR (Gz) [20] = target: T21, human KOR (Gz) (Homo sapiens, UniProt P41145, L253A); experiment: cell-based; conditions: HEK-293T
T21 construct: expressed in transfected cells; host or cells: HEK293T

human KOR (Gz) [21] = target: T22, human KOR (Gz) (Homo sapiens, UniProt P41145, G319L); experiment: cell-based
T22 construct: expressed in transfected cells; host or cells: HEK293T

[22] = read-out: KOR WT_Arrestin response (Figure S4D)
[23] = read-out: Tango response (Figure S4C)

T3 sequence (P41145 whole entry V134A): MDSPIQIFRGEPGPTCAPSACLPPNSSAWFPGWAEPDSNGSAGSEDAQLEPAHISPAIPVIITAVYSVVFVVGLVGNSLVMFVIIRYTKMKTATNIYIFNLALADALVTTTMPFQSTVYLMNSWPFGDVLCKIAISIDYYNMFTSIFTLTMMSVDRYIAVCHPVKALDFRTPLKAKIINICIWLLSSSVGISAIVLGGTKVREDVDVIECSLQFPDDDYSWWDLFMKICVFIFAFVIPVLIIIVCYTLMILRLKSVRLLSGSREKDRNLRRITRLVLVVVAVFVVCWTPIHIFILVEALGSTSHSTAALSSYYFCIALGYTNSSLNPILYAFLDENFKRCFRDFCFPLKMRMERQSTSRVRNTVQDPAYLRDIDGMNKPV
T6 sequence (P41145 whole entry F114L): as the sequence (P41145 whole entry V134A) above, with F114L, A134V counted along it
Sequence of KOR K227A (P41145 whole entry K227A): as the sequence (P41145 whole entry V134A) above, with A134V, K227A counted along it
T4 sequence (P41145 whole entry Y320L): as the sequence (P41145 whole entry V134A) above, with A134V, Y320L counted along it
Sequence of human KOR (Homo sapiens, UniProt P41145) (P41145 whole entry): as the sequence (P41145 whole entry V134A) above, with A134V counted along it
T5 sequence (P41145 whole entry W124L): as the sequence (P41145 whole entry V134A) above, with W124L, A134V counted along it
T17 sequence (P41145 whole entry R170A): as the sequence (P41145 whole entry V134A) above, with A134V, R170A counted along it
T15 sequence (P41145 whole entry K200A): as the sequence (P41145 whole entry V134A) above, with A134V, K200A counted along it
T19 sequence (P41145 whole entry F114L): as the sequence (P41145 whole entry V134A) above, with F114L, A134V counted along it
T18 sequence (P41145 whole entry R274A): as the sequence (P41145 whole entry V134A) above, with A134V, R274A counted along it
T13 sequence (P41145 whole entry N322A): as the sequence (P41145 whole entry V134A) above, with A134V, N322A counted along it
T9 sequence (P41145 whole entry N322A): as the sequence (P41145 whole entry V134A) above, with A134V, N322A counted along it
T16 sequence (P41145 whole entry E297A): as the sequence (P41145 whole entry V134A) above, with A134V, E297A counted along it
T12 sequence (P41145 whole entry N141A): as the sequence (P41145 whole entry V134A) above, with A134V, N141A counted along it
T2 sequence (P41145 whole entry G319L): as the sequence (P41145 whole entry V134A) above, with A134V, G319L counted along it
T11 sequence (P41145 whole entry R271A): as the sequence (P41145 whole entry V134A) above, with A134V, R271A counted along it
T10 sequence (P35372 whole entry): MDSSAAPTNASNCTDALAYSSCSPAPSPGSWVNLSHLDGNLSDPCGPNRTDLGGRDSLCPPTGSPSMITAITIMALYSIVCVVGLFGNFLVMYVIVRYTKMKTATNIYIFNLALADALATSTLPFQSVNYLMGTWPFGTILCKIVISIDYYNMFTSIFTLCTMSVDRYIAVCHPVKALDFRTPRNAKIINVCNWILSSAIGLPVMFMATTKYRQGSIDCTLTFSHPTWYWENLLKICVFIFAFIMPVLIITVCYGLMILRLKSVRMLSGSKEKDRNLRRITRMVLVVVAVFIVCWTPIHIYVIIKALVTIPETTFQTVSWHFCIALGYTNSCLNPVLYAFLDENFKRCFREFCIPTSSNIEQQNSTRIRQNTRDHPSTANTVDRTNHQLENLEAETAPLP
T1 sequence (P41145 whole entry Q115N): as the sequence (P41145 whole entry V134A) above, with Q115N, A134V counted along it
T8 sequence (P41145 whole entry K227A): as the sequence (P41145 whole entry V134A) above, with A134V, K227A counted along it
T14 sequence (P41145 whole entry K227A): as the sequence (P41145 whole entry V134A) above, with A134V, K227A counted along it
T20 sequence (P41145 whole entry T94V): as the sequence (P41145 whole entry V134A) above, with T94V, A134V counted along it
T7 sequence (P41145 whole entry W287A): as the sequence (P41145 whole entry V134A) above, with A134V, W287A counted along it
Sequence of DOR (P41143 whole entry): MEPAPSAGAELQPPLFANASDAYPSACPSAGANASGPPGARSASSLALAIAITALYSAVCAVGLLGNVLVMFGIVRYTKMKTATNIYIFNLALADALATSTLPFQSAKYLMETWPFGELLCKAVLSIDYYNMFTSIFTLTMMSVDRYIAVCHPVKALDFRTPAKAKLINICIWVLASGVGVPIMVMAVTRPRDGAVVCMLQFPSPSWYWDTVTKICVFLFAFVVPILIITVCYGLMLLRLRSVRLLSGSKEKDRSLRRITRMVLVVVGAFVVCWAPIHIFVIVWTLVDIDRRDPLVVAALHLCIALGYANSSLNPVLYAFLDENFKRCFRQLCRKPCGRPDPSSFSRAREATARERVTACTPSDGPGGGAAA
T22 sequence (P41145 whole entry G319L): as the sequence (P41145 whole entry V134A) above, with A134V, G319L counted along it
T21 sequence (P41145 whole entry L253A): as the sequence (P41145 whole entry V134A) above, with A134V, L253A counted along it

SMILES: CN(C(=O)/C=C/c1ccoc1)[C@@H]1CC[C@@]2(O)[C@H]3Cc4ccc(O)c5c4[C@@]2(CCN3CC2CC2)[C@H]1O5 [Nalfurafine, nalfurafine]
- Emax (human KOR [1]): 100 ± 5%
- activation at 3.162 pM (human KOR [1]; [22]): 21.6%
- activation at 10 pM (human KOR [1]; [22]): 33.5%
- activation at 31.62 pM (human KOR [1]; [22]): 37.7%
- activation at 0.0001 µM (human KOR [1]; [22]): 65.6%
- activation at 0.001 µM (human KOR [1]; [22]): 67.9%
- activation at 0.01 µM (human KOR [1]; [22]): 76.6%
- activation at 0.1 µM (human KOR [1]; [22]): 97.1%
- activation at 1 µM (human KOR [1]; [22]): 106%
- activation at […] (human KOR [1]; [22]): 68.4% and 74.4% and 96.9% and 96.5%
- activation at 10 pM (human KOR [1]; read-out: Tango response): 21.8%
- activation at 31.62 pM (human KOR [1]; read-out: Tango response): 35.1%
- activation at 0.0001 µM (human KOR [1]; read-out: Tango response): 39.8%
- activation at 0.001 µM (human KOR [1]; read-out: Tango response): 74.2%
- activation at 0.01 µM (human KOR [1]; read-out: Tango response): 80.9%
- activation at 1 µM (human KOR [1]; read-out: Tango response): 106%
- activation at […] (human KOR [1]; read-out: Tango response): 71% and 100%
- activation at 0.0001 µM (human KOR [1]; [23]): 36.1%
- activation at 0.001 µM (human KOR [1]; [23]): 74.1%
- activation at 0.1 µM (human KOR [1]; [23]): 87.2%
- activation at 1 µM (human KOR [1]; [23]): 87.7%
- activation at 10 µM (human KOR [1]; [23]): 121%
- activation at […] (human KOR [1]; [23]): 77.4% and 111%
- KOR K227A_Gi response (Figure S4D) (KOR K227A; M -6, replicate values): 107.002 and 103.527 and 102.568
- KOR K227A_Gi response (Figure S4D) (KOR K227A; M -6.5, replicate values): 98.0139 and 98.733 and 102.808
- KOR K227A_Gi response (Figure S4D) (KOR K227A; M -7, replicate values): 101.489 and 104.366 and 102.568
- KOR K227A_Gi response (Figure S4D) (KOR K227A; M -7.5, replicate values): 98.3734 and 96.4559 and 94.5383
- KOR K227A_Gi response (Figure S4D) (KOR K227A; M -8, replicate values): 100.531 and 98.0139
- KOR K227A_Gi response (Figure S4D) (KOR K227A; M -8.5, replicate values): 99.8116 and 103.767 and 98.2536
- KOR K227A_Gi response (Figure S4D) (KOR K227A; M -9, replicate values): 96.9353 and 103.167 and 100.291
- KOR K227A_Gi response (Figure S4D) (KOR K227A; M -9.5, replicate values): 98.9727 and 99.5719 and 95.8566
- KOR K227A_Gi response (Figure S4D) (KOR K227A; M -10, replicate values): 99.3322 and 106.283 and 99.5719
- KOR K227A_Gi response (Figure S4D) (KOR K227A; M -10.5, replicate values): 95.9765 and 94.778 and 93.8193
- KOR K227A_Gi response (Figure S4D) (KOR K227A; M -11, replicate values): 90.7033 and 96.5757 and 95.2574
- KOR K227A_Gi response (Figure S4D) (KOR K227A; M -12, replicate values): 68.1721 and 73.8049 and 67.4531
- KOR K227A_Gi response (Figure S4D) (KOR K227A; M -12.5, replicate values): 37.1319 and 43.2441 and 45.1616
- KOR K227A_Gi response (Figure S4D) (KOR K227A; M -13, replicate values): 12.6833 and 10.4062
- KOR K227A_Gi response (Figure S4D) (KOR K227A; M -14, replicate values): 6.331 and 5.612 and 17.3573
- Emax (human KOR [2]): 98 ± 3%
- Emax (human KOR [3]): 2.6 ± 1.2%
- activation at 1 µM (human KOR [3]; read-out: Tango response): 4.03%
- Emax (human KOR [4]): 76 ± 6%
- activation at 10 µM (human KOR [4]; read-out: Tango response): 71.1%
- activation at […] (human KOR [4]; read-out: Tango response): 50.8% and 73.3%
- Emax (human KOR [5]): 66 ± 7%
- activation at 0.1 µM (human KOR [5]; read-out: Tango response): 43.6%
- activation at 1 µM (human KOR [5]; read-out: Tango response): 51.8%
- activation at 10 µM (human KOR [5]; read-out: Tango response): 79.2%
- activation at […] (human KOR [5]; read-out: Tango response): 53% and 72.8%
- Emax (human KOR [6]): 26 ± 4%
- activation at 1 µM (human KOR [6]; read-out: Tango response): 19.6%
- activation at […] (human KOR [6]; read-out: Tango response): 21% and 25.5%
- Emax (human KOR [7]): 17 ± 3%
- activation at 1 µM (human KOR [7]; read-out: Tango response): 16.2%
- activation at 10 µM (human KOR [7]; read-out: Tango response): 15.9%
- activation at […] (human KOR [7]; read-out: Tango response): 30.3%
- Emax (human KOR [8]): 85 ± 7%
- Emax (human KOR [9]): 89 ± 3%
- Ki (DOR): 0.427 nM
- FC vs wild type (human KOR (Gi2)): 178
- Emax (human KOR (Gi2); HEK-293T): 77.2%
- EC50 (MOR): 5.13 nM
- FC vs wild type (human KOR (Gz) [10]): 398
- Emax (human KOR (Gz) [10]; HEK-293T): 110%
- FC vs wild type (human KOR (Gz) [11]): 93
- Emax (human KOR (Gz) [11]; HEK-293T): 98.3%
- FC vs wild type (human KOR (Gz) [12]): 1259
- Emax (human KOR (Gz) [12]; HEK-293T): 81.8%
- FC vs wild type (human KOR (Gz) [13]): 3
- FC vs wild type (human KOR (Gz) [14]): 9
- Emax (human KOR (Gz) [14]; HEK-293T): 108%
- FC vs wild type (human KOR (Gz) [15]): 1
- Emax (human KOR (Gz) [15]; HEK-293T): 103%
- FC vs wild type (human KOR (Gz) [16]): 13 and ~10
- Emax (human KOR (Gz) [16]; HEK-293T): 96%
- FC vs wild type (human KOR (Gz) [17]): 977
- Emax (human KOR (Gz) [17]; HEK-293T): 99.1%
- FC vs wild type (human KOR (Gz) [18]): 54
- Emax (human KOR (Gz) [18]; HEK-293T): 85.6%
- FC vs wild type (human KOR (Gz) [19]): 6
- Emax (human KOR (Gz) [20]): 112%
- FC vs wild type (human KOR (Gz) [21]): 162
